Experimental data taken from PubChem BioAssay (NCI).
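Where inhibition never reached the appropriate level, the endpoint shown equals the highest concentration tested. Otherwise, values were interpolated linearly from a five-concentration, 48-hour dose response in 96-well plates. Here, GI50 denotes the concentration required for 50% inhibition of growth. TGI: total growth inhibition.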

Tests used:
Experiment in all cases: DTP human tumour cell line panel, 48 h
[1] = test system: 786-0 renal
[2] = test system: A498 renal
[3] = test system: A549 NSCLC
[4] = test system: ACHN renal
[5] = test system: BT-549 breast
[6] = test system: CAKI-1 renal
[7] = test system: CCRF-CEM leukemia
[8] = test system: COLO 205 colon
[9] = test system: DU-145 prostate
[10] = test system: EKVX NSCLC
[11] = test system: HCC-2998 colon
[12] = test system: HCT-116 colon
[13] = test system: HCT-15 colon
[14] = test system: HL-60(TB) leukemia
[15] = test system: HOP-62 NSCLC
[16] = test system: HOP-92 NSCLC
[17] = test system: HS 578T breast
[18] = test system: HT29 colon
[19] = test system: IGROV1 ovarian
[20] = test system: K-562 leukemia
[21] = test system: KM12 colon
[22] = test system: LOX IMVI melanoma
[23] = test system: M14 melanoma
[24] = test system: MALME-3M melanoma
[25] = test system: MCF7 breast
[26] = test system: MDA-MB-231 breast
[27] = test system: MDA-MB-435
[28] = test system: MOLT-4 leukemia
[29] = test system: NCI-H226 lung
[30] = test system: NCI-H23 lung
[31] = test system: NCI-H460 lung
[32] = test system: NCI-H522 lung
[33] = test system: NCI/ADR-RES ovarian
[34] = test system: OVCAR-3 ovarian
[35] = test system: OVCAR-4 ovarian
[36] = test system: OVCAR-5 ovarian
[37] = test system: OVCAR-8 ovarian
[38] = test system: PC-3 prostate
[39] = test system: RPMI-8226 leukemia
[40] = test system: RXF 393 renal
[41] = test system: SF-268 CNS
[42] = test system: SF-295 CNS
[43] = test system: SF-539 CNS
[44] = test system: SK-MEL-2 melanoma
[45] = test system: SK-MEL-28 melanoma
[46] = test system: SK-MEL-5 melanoma
[47] = test system: SK-OV-3 ovarian
[48] = test system: SN12C renal
[49] = test system: SNB-19 CNS
[50] = test system: SNB-75 CNS
[51] = test system: SR leukemia
[52] = test system: SW-620 colon
[53] = test system: T-47D breast
[54] = test system: TK-10 renal
[55] = test system: U251 CNS
[56] = test system: UACC-257 melanoma
[57] = test system: UACC-62 melanoma
[58] = test system: UO-31 renal

Compound `Cc1cc2nc3c4cc(N)ccc4n(CCN(C)C)c3nc2cc1C` has a GI50 [1] of 1110 nM, a TGI [1] of 12.6 µM and a GI50 [2] of 763 nM. The TGI [2] was 2320 nM, the GI50 [3] was 450 nM and the TGI [3] was 6.14 µM. The GI50 [4] was 351 nM, the TGI [4] was 9.7 µM and the GI50 [5] was 2230 nM. The TGI [5] was 8.73 µM, the GI50 [6] was 462 nM and the TGI [6] was 6.28 µM. It also gave a GI50 [7] of 891 nM, a TGI [7] of 17.6 µM and a GI50 [8] of 408 nM. It also gave a TGI [8] of 5.27 µM, a GI50 [9] of 1110 nM and a TGI [9] of 11.7 µM. The GI50 [10] was 1590 nM, the TGI [10] was 12.5 µM and the GI50 [11] was 876 nM. The TGI [11] was 3.85 µM, the GI50 [12] was 365 nM and the TGI [12] was 10.9 µM. The GI50 [13] was 499 nM, the TGI [13] was 10.2 µM and the GI50 [14] was 947 nM. For the same compound, the TGI [14] was 4.24 µM, the GI50 [15] was 687 nM and the TGI [15] was 14.7 µM. It also gave a GI50 [16] of 527 nM, a TGI [16] of 5.05 µM and a GI50 [17] of 2060 nM. It also gave a TGI [17] of 9.81 µM, a GI50 [18] of 478 nM and a TGI [18] of 6.59 µM. It also gave a GI50 [19] of 500 nM, a TGI [19] of 4.62 µM and a GI50 [20] of 421 nM. The TGI [20] was 8.98 µM, the GI50 [21] was 882 nM and the TGI [21] was 7.11 µM. For the same compound, the GI50 [22] was 461 nM, the TGI [22] was 3.27 µM and the GI50 [23] was 1120 nM. The TGI [23] was 2880 nM, the GI50 [24] was 1270 nM and the TGI [24] was 3.08 µM. For the same compound, the GI50 [25] was 494 nM, the TGI [25] was 7.96 µM and the GI50 [26] was 1120 nM. It also gave a TGI [26] of 7.61 µM, a GI50 [27] of 979 nM and a TGI [27] of 3.25 µM. For the same compound, the GI50 [28] was 376 nM, the TGI [28] was over 31.9 µM and the GI50 [29] was 896 nM. For the same compound, the TGI [29] was 4.1 µM, the GI50 [30] was 981 nM and the TGI [30] was 3.73 µM. It also gave a GI50 [31] of 402 nM, a TGI [31] of 2950 nM and a GI50 [32] of 721 nM. It also gave a TGI [32] of 5.63 µM, a GI50 [33] of 501 nM and a TGI [33] of 9.95 µM. For the same compound, the GI50 [34] was 1390 nM, the TGI [34] was 6.87 µM and the GI50 [35] was 1790 nM. It also gave a TGI [35] of 9.64 µM, a GI50 [36] of 914 nM and a TGI [36] of 9.66 µM. It also gave a GI50 [37] of 584 nM, a TGI [37] of 12.8 µM and a GI50 [38] of 935 nM. The TGI [38] was 8.67 µM, the GI50 [39] was 606 nM and the TGI [39] was 4.86 µM. It also gave a GI50 [40] of 912 nM, a TGI [40] of 2720 nM and a GI50 [41] of 1430 nM. It also gave a TGI [41] of 6.89 µM, a GI50 [42] of 705 nM and a TGI [42] of 4.03 µM. The GI50 [43] was 839 nM, the TGI [43] was 4.66 µM and the GI50 [44] was 1340 nM. For the same compound, the TGI [44] was 3.89 µM, the GI50 [45] was 2080 nM and the TGI [45] was 5.77 µM. For the same compound, the GI50 [46] was 1480 nM, the TGI [46] was 2880 nM and the GI50 [47] was 1920 nM. The TGI [47] was 16.4 µM, the GI50 [48] was 484 nM and the TGI [48] was 11.7 µM. For the same compound, the GI50 [49] was 669 nM, the TGI [49] was 11.4 µM and the GI50 [50] was 1160 nM. It also gave a TGI [50] of 6.82 µM, a GI50 [51] of 285 nM and a TGI [51] of 7.29 µM. The GI50 [52] was 381 nM, the TGI [52] was 10.9 µM and the GI50 [53] was 1710 nM. For the same compound, the TGI [53] was 12.3 µM, the GI50 [54] was 1990 nM and the TGI [54] was 7.54 µM. The GI50 [55] was 613 nM, the TGI [55] was 11.1 µM and the GI50 [56] was 1210 nM. The TGI [56] was 5.14 µM, the GI50 [57] was 824 nM and the TGI [57] was 2750 nM. For the same compound, the GI50 [58] was 439 nM and the TGI [58] was 4.8 µM.
